Reference: US7196088B2, “Substituted tetrahydroisoquinolines and uses thereof” (Roche Palo Alto LLC, priority 2003, dated 2007)
pKi: −log10 of the molar value. Counter-ions that a name gives are not always drawn.

Legend:
[1] = target: recombinant human 5-HT6 receptor (Homo sapiens, UniProt P50406); test: Radioligand binding studies: competition for [3H]LSD binding in membranes of HEK293 cells expressing the receptor
recombinant human 5-HT6 receptor, sequence (P50406 whole entry): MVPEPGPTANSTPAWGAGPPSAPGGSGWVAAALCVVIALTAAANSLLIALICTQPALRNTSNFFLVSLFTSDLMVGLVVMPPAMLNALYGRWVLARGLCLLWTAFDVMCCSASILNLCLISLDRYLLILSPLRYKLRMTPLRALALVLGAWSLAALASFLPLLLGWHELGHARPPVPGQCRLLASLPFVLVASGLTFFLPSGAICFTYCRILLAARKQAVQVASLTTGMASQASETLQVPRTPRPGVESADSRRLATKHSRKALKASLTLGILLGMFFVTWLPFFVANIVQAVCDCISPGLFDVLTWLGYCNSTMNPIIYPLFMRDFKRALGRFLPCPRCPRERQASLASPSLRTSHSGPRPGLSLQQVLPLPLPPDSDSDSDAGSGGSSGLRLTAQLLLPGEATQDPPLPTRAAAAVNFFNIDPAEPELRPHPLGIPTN

In the case of O=S(=O)(c1ccccc1)N1CCc2c(cccc2N2CCNCC2)C1 (as salt: trifluoroacetic acid salt), the melting point was 214 to 216 °C.
With O=S(=O)(c1cccc(Cl)c1Cl)N1CCc2c(cccc2N2CCNCC2)C1 [Compound 16, 2-(2,3-Dichloro-benzenesulfonyl)-5-pipe-razin-1-yl-1,2,3,4-tetra-hydroisoquinoline] the pKi [1] was 10.37.
